# Reference: PMC1192819, “Molecular cloning and characterization of a nuclear androgen receptor activated by 11-ketotestosterone” (Reproductive biology and endocrinology : RB&E, 2005)
# Experiments:
# [1] = target: T1, stickleback ARβ2 (reticulocyte lysate) (Gasterosteus aculeatus, UniProt Q801Z2); assay: Ligand competition assay with 1 nM [3H]-DHT, ARβ2 containing reticulocyte extract; type: binding, three-spined stickleback (Gasterosteus aculeatus); conditions: read-out: EC50 (competition for [3H]-DHT binding)
# T1 sequence (Q801Z2 1-735): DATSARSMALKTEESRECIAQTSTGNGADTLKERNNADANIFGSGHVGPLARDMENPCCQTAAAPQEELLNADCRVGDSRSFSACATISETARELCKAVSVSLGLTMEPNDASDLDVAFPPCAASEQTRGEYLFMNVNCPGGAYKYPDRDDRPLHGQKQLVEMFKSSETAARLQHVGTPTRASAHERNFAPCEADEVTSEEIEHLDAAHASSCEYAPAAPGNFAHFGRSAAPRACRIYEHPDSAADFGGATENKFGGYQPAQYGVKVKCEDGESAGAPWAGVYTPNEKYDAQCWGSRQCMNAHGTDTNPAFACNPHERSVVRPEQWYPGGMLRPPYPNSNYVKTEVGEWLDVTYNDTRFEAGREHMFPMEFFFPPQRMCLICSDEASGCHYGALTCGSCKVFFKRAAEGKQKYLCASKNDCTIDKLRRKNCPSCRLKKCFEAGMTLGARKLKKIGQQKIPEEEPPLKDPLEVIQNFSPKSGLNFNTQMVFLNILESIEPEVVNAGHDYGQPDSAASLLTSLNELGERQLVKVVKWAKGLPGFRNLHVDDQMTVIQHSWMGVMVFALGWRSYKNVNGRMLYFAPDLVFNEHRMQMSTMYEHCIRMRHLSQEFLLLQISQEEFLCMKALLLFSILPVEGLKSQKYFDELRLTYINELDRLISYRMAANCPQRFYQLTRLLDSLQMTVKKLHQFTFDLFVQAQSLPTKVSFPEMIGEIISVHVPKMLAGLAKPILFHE
# Procedure: The excised AR pBK CMV clones were digested with XbaI and EcoRI and the inserts were gel purified prior to ligation into the pCMV-TNT vector (Promega) between XbaI and EcoRI. […] AR was expressed by introducing the pCMV-TNT into the TNT coupled reticulocyte lysate system (Promega) according to the manufacturer's instructions. The size of the expressed products was determined by addition of S^35-methionin to the reticulocyte lysate system. The obtained protein suspension was analyzed on a denaturing 8% SDS PAGE and the sizes were determined using prestained SDS-PAGE broad range protein molecular weight standard (Bio-Rad) and a control luciferase protein of 62 kDa included in the reticulocyte lysate system (Promega). For use in binding assays AR was expressed in the absence of radioactive S^35-methionein and stored at 4°C until further used in recombinant binding assay experiments.
# The steroid specificity of receptor binding was examined using a competitive binding assay. […] Following incubation, the reaction was terminated by addition of DCC and centrifugation and the specific binding in each tube was determined as described above.
# human AR = target: T2, human AR (Homo sapiens, UniProt P10275); assay: ARE-luciferase trans-activation assay, human AR in transfected ZFL cells; type: cell-based; conditions: 10^-8 M of each steroid
# T2 construct: expressed in transfected cells; host or cells: ZFL (zebrafish liver) cells
# T2 sequence (P10275 1-920): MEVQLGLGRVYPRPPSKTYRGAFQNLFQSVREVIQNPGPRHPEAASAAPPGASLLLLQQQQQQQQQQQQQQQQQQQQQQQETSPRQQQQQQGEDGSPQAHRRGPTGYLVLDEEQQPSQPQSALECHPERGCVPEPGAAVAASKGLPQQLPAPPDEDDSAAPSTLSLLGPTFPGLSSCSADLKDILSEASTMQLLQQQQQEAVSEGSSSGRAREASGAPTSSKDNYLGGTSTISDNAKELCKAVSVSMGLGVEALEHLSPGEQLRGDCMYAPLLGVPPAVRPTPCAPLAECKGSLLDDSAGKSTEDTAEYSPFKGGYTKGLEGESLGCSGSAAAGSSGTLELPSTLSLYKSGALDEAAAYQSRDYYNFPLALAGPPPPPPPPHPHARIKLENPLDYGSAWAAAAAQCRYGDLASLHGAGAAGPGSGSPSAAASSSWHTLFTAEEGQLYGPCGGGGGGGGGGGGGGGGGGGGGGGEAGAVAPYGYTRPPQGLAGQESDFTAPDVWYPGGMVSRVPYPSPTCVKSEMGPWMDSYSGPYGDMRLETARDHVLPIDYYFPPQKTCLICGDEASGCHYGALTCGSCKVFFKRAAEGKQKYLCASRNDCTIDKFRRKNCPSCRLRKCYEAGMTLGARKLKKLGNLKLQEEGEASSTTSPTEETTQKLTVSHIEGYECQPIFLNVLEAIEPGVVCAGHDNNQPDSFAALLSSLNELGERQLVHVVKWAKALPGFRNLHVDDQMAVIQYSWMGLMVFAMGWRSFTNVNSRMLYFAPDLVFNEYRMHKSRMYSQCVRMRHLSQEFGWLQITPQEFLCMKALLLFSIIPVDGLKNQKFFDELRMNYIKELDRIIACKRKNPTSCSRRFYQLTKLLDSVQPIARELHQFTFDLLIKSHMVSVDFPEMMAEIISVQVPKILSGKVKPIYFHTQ
# Procedure: Two liver epithelial cell lines were used to test receptor activity. HepG2 cells (ATCC, Manassas, VA) were maintained in DMEM supplemented with 10% FCS and non-essential amino acids. ZFL cells (ATCC) were maintained in 50% L-15 Leibovitz, 15% H-12 Ham and 35% DMEM supplemented with 10% FCS (Gibco, Paisley, Scotland, UK) and 50 ng ml-1 EGF (Sigma). Cells were cultured at 37°C (HepG2) or 28°C (ZFL) in 5% CO2. The transfection experiments were initiated by replacing the tissue culture medium with fresh phenol-free medium supplemented with charcoal stripped FCS and the cells were seeded on 24-well plates. Transfections were performed at 90–95% confluence using 1,5 μl Lipofectamine 2000 (Invitrogen, Carlsbad, CA, USA) and 0,6 μg DNA per well. […]
# After 16 h the transfection medium was replaced with fresh phenol-free medium, supplemented with charcoal stripped FCS, containing different steroid hormones. The cells were exposed to the hormones for 40 h and luciferase levels were detected using the Dual Luciferase Assay kit (Promega) in a TD 20/20 Luminometer (Turner Designs, Sunnyvale, CA). […]
smiles,measurement,setting,value
"C[C@]12CC(=O)[C@H]3[C@@H](CCC4=CC(=O)CC[C@@]43C)[C@@H]1CC[C@@H]2O [KT, 11-ketotestosterone]",EC50,[1],2.18 ± 0.71 nM
same,activation of human AR compared among androgens,human AR,equally activated
